# Test results from US9683025B2, “Methods and compositions for treating cancer and inflammatory diseases” (The Regents of the University of Colorado, A Body Corporate, priority 2013, dated 2017).
# pIC50, pKd: −log10 of the molar value. Entries after “also recorded” stand apart in the source; their conditions may differ. Like-named read-outs stand apart in the source and are kept apart here. Where a SMILES comes first, the peptide text is derived from it.
# Assays:
# A375 melanoma cells = experiment: Cell viability, A375; assay type: cell-based; settings: A375, CtBP overexpressing, FIG. 5
# Description: (§1) The Tat peptide alone has no effect on these cells.
# [1] = tested on: IMQ-based psoriasis model; experiment: IMQ-based psoriasis model; assay type: in vivo, mouse; settings: FIG. 15B, versus PBS
# 3T3 cells = experiment: Cell viability, 3T3; assay type: cell-based, mouse; settings: 3T3, does not significantly overexpress CtBP, FIG. 5
# Description: as §1
# [2] = tested on: CtBP target genes BAX, BRCA1, and E-Cadherin; experiment: Real-time PCR of endogenous CtBP target genes in H1299 cells; assay type: cell-based, human; settings: increasing concentrations, FIG. 6
# Method: Total RNA was isolated using TRIzol (Invitrogen) as previously described (Zhang et al., 2006). One hundred nanograms of RNA from each sample were subjected to qRT-PCR (ThermoFisher). An 18S probe was used as an internal control. Each sample was examined in triplicate. Relative RNA expression levels were determined by normalizing with internal controls, the values were calculated using the comparative Ct method.
# Subsequently, the transcription levels of the endogenous CtBP target genes BAX, BRCA1, and E-Cadherin in Tat-E1A treated H1299 cells were evaluated using real-time PCR.
# [3] = tested on: H1299 non-small cell lung carcinoma cells; experiment: Cell viability, H1299; assay type: cell-based, human; settings: H1299, CtBP overexpressing, FIG. 5
# Description: as §1
# CtBP [4] = biological target: T1, CtBP (Homo sapiens, UniProt Q13363); experiment: Fluorescence polarization competition of unlabeled peptide with FITC-labeled 14mer peptide; assay type: binding
# T1 construct: 6xHis
# Method: (§2) Additional peptides were tested for in vitro inhibitory potency (Table 5). For Kd determination, FITC-labeled peptide (FITC-peptide) was incubated with varying concentrations of CtBP. The fluorescence polarization values of the FITC-peptide were measured and plotted against CtBP concentration to determine Kd of the FITC-peptide with CtBP using the Prism program. […] For IC50 determination, a fluorescence polarization assay was utilized. […] Increasing concentrations of unlabeled peptide were added to compete with the FITC-labeled peptide, leading to a decreased fluorescence polarization value.
# CtBP [5] = biological target: T1, CtBP; experiment: Fluorescence polarization Kd determination of FITC-peptide with CtBP; assay type: binding
# Method: as §2
# CtBP-E1A interaction [6] = biological target: T2, CtBP-E1A interaction (Homo sapiens, UniProt Q13363); settings: read-out: IC50 of inhibition of the CtBP/E1A interaction in vitro; Zhang et al. 2000; cited from earlier work
# CtBP-E1A interaction [7] = biological target: T2, CtBP-E1A interaction; experiment: CtBP-E1A interaction inhibition (AlphaScreen / fluorescence polarization competition assay); assay type: binding; settings: IC50 value, Table 3; inhibition of CtBP/E1A protein interaction
# Method: The ability of peptides to inhibit CtBP binding can be monitored by two biochemical assays. An AlphaScreen assay (Perkin-Elmer) was developed that is capable of detecting the CtBP-E1A interaction. Purified GST-E1A and 6xHis-CtBP are incubated with glutathione-conjugated donor beads and nickel-chelated acceptor beads respectively. The interaction between CtBP and E1A brings the donor and acceptor beads in close proximity, which produces a fluorescence signal after laser excitation and can be detected using the EnVision plate reader. A peptide that inhibits this interaction will limit the proximity of the beads and thus a loss in fluorescence signal will occur. In addition to the alphascreen, a fluorescence polarization based assay with a fluorescein-labeled 14mer E1A peptide ([…] (SEQ ID NO: 1)) was also developed. Purified 6xHis-CtBP is incubated with the fluorescein-labeled E1A peptide and changes in the polarization value of the labeled peptide are detected using the EnVision plate reader. A decrease in peptide binding to CtBP can be detected by an […], and used to monitor peptide inhibition. IC50 values of designed peptides can be determined using either of these assays through the addition of increasing amounts in each well and monitoring the degree of inhibition of the CtBP-E1A interaction.
# Multiple amino acid sequences may appear at positions outside the conserved peptide motif. The most frequently occurring amino acids in these positions are used to design the peptides that bind CtBP with the highest affinity. The affinity of these new peptides is compared to the original 14mer E1A peptide (SEQ ID NO:1) by comparing the IC50 of these peptides in inhibiting the CtBP/E1A protein interaction in a competition assay. The peptide identified from phage display that competes with the CtBP/E1A protein interaction better than the original 14mer E1A peptide is selected and conjugated to the cell penetrating peptide of the present invention. Also provided in Table 3 are […] for selected peptides.
# The ability of peptides to inhibit CtBP binding can be monitored by two biochemical assays. An AlphaScreen assay (Perkin-Elmer) was developed that is capable of detecting the CtBP-E1A interaction. Purified GST-E1A and 6xHis-CtBP are incubated with glutathione-conjugated donor beads and nickel-chelated acceptor beads respectively. The interaction between CtBP and E1A brings the donor and acceptor beads in close proximity, which produces a fluorescence signal after laser excitation and can be detected using the EnVision plate reader. A peptide that inhibits this interaction will limit the proximity of the beads and thus a loss in fluorescence signal will occur. In addition to the alphascreen, a fluorescence polarization based assay with a fluorescein-labeled 14mer E1A peptide ([…] (SEQ ID NO: 1)) was also developed. Purified 6xHis-CtBP is incubated with the fluorescein-labeled E1A peptide and changes in the polarization value of the labeled peptide are detected using the EnVision plate reader. A decrease in peptide binding to CtBP can be detected by an […], and used to monitor peptide inhibition. IC50 values of designed peptides can be determined using either of these assays through the addition of increasing amounts in each well and monitoring the degree of inhibition of the CtBP-E1A interaction. Also provided in Table 4 are IC50 for selected peptides.
compound,measurement,setting,value
GRKKRRQRRRPPQLEEPGQPLDLSCKRPR [Tat-E1A],cell viability,A375 melanoma cells,reduces the viability
same,"erythema, thickening and scaling (cumulative score)",[1],Reduction
same,cell viability,3T3 cells,does not affect
same,"CtBP-mediated suppression of target genes BAX, BRCA1, E-Cadherin (transcription levels)",[2],dose-dependent alleviation; also recorded: relieves the suppression
same,cell viability,[3],reduces the viability
"CC(C)C[C@H](NC(=O)[C@H](CC(=O)O)NC(=O)[C@H](CC(C)C)NC(=O)[C@@H]1CCCN1C(=O)[C@H](CCC(N)=O)NC(=O)CNC(=O)[C@@H]1CCCN1C(=O)[C@@H](N)CCC(=O)O)C(=O)N[C@@H](CO)C(=O)N[C@@H](CS)C(=O)N[C@@H](CCCCN)C(=O)N[C@@H](CCCNC(=N)N)C(=O)N1CCC[C@H]1C(=O)N[C@@H](CCCNC(=N)N)C(=O)O [Wild-type, reference compound] (H-EPGQPLDLSCKRPR-OH; N-terminus and C-terminus assumed)",pIC50,CtBP [4],5.22
same,pKd,CtBP [5],5.37
same,pIC50,CtBP-E1A interaction [6],~5.15
same,pIC50,CtBP-E1A interaction [7],5.14
